In ChEMBL document CHEMBL1201862, “PubChem BioAssay data set” (2004):
The source made the active and inactive calls.

What was measured:
[1] = target: Lysine-specific demethylase 4A (Homo sapiens, UniProt O75164); assay: JMJD2A histone demethylase inhibitors, dose response, selectivity assay for GASC-1 inhibitor project, biochemical, DELFIA europium, cherry-picked samples (AID 488840)
[2] = target: T1, Mannose-6-phosphate isomerase (Homo sapiens, UniProt P34949); assay: human PMI inhibitors, high substrate, primary screen, biochemical, fluorescence intensity, high mannose 6-phosphate (AID 1220)
T1 sequence (P34949 whole entry): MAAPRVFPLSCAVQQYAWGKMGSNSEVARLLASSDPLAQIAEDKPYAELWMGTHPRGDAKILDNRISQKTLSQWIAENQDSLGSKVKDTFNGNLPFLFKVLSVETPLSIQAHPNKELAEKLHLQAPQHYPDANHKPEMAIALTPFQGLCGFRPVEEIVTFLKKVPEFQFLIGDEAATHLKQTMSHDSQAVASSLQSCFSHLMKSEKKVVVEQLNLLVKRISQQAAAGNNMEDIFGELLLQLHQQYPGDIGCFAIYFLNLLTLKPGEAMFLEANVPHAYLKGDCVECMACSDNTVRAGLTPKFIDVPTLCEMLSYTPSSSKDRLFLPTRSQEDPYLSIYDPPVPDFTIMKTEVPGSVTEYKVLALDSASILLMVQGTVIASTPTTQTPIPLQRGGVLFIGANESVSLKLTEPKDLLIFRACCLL

[3] = target: T2, Microphthalmia-associated transcription factor (Homo sapiens, UniProt O75030); assay: TRPM1 promoter luciferase signal decrease, dose response, MITF inhibitor project, cell-based, SK-MEL-5, cherry-picked, set 3 (AID 493073); format: functional
T2 sequence (O75030 whole entry): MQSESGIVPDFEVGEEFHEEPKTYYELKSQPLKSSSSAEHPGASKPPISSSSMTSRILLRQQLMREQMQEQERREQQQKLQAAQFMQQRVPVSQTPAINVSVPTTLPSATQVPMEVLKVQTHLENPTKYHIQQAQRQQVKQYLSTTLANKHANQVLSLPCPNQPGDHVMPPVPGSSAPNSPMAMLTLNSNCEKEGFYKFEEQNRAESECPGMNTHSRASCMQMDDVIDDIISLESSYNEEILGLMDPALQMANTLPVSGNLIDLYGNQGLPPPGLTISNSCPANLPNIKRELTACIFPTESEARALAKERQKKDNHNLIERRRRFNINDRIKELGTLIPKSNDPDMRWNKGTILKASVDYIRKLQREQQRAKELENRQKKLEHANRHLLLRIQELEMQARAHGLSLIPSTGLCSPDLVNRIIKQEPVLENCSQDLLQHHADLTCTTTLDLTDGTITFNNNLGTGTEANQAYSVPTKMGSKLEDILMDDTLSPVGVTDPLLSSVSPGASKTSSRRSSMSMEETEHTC

[4] = test system: Vero; assay: cells; format: functional, cell-based; conditions: Chlorocebus sabaeus
[5] = growth suppression of PTEN-null colon cells, dose response, cell-based, HCT116 PTEN knockout (AID 1047); format: functional;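 further: HCT116 colon tumor cells with PTEN knocked out; cells exposed to compound for 60 hours before readout; potency for loss of cell viability measured by luminescence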
[6] = THP-1 cell cytotoxicity, dose response, cytotoxicity control for non-replicating M. tuberculosis project (AID 489025); format: functional
[7] = test system: BJ; assay: cytotoxicity toward BJ-TERT-LT-ST fibroblasts, dose response, cell-based, RAS-independent, luminescence (AID 1935); format: functional; conditions: Homo sapiens;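 further: BJ fibroblasts immortalized with TERT plus LT and ST oncogenes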
[8] = test system: HEK293; assay: cells; conditions: Homo sapiens
[9] = cells; format: functional
[10] = test system: BJ; assay: cytotoxicity toward BJ-TERT fibroblasts, dose response, cell-based, RAS-independent, luminescence (AID 1933); format: functional; conditions: Homo sapiens
[11] = growth suppression of beta-catenin-knockout colon cells, dose response, cell-based, HCT116, human colon tumor (AID 1045); format: functional;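 further: HCT116 colon tumor cells with beta catenin knocked out; cells exposed to compound for 60 hours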
[12] = test system: BJ; assay: cells; format: functional, cell-based; conditions: Homo sapiens
[13] = target: T3, Caspase-6 (Homo sapiens, UniProt P55212); assay: human caspase-6 inhibitors, dose response, biochemical, VEID-R110 fluorescence, cherry-pick (AID 720632)
T3 sequence (P55212 whole entry): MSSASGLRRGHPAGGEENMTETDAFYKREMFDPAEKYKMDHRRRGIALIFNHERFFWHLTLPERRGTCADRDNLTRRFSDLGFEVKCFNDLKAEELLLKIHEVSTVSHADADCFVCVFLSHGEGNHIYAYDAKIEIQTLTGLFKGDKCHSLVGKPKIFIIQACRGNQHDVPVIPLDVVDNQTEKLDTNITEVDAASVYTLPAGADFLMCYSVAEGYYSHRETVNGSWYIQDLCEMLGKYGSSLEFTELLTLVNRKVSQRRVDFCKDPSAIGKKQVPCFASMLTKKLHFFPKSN

[14] = Vero E6 cell cytotoxicity, dose response, cytotoxicity control for non-replicating M. tuberculosis project, secondary assay (AID 492998); format: functional, VeroE6; conditions: Vero C1008
[15] = test system: HEK293; assay: cells; conditions: Homo sapiens; remark: listed apart in the source
[16] = cytotoxicity toward DRD oncogenic fibroblasts, dose response, cell-based, non-viral oncogenic, luminescence (AID 1934); format: functional; conditions: Homo sapiens
[17] = target: T4, Heat shock factor protein 1 (Mus musculus, UniProt P38532); assay: HSF1 potentiators in luciferase reporter cells, confirmation, cell-based, NIH3T3, luminescence, dose retest (AID 435004); format: functional;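 further: stress induced by proteasome inhibitor MG132 added 30 min after compound; luciferase reporter driven by HSF1 response element in NIH3T3 cells; actives raise luminescence as potentiators of the MG132 stress response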
T4 sequence (P38532 whole entry): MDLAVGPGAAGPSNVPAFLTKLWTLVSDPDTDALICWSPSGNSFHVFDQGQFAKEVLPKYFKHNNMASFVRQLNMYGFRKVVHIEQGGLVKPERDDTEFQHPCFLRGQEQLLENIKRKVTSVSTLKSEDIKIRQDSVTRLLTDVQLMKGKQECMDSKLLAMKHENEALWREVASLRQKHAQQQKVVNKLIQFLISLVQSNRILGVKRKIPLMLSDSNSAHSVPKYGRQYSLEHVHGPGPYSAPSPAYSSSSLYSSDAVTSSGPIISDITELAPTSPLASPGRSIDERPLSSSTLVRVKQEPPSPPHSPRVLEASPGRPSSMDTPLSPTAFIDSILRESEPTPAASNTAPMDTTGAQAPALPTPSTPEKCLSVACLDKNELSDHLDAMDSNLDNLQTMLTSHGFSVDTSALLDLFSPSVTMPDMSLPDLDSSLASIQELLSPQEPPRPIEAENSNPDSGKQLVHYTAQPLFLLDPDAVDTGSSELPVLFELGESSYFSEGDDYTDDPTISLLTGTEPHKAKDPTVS

[18] = Luminescence Cell-Based Dose Response HTS to Identify Inhibitors of 5'UTR Stem-Loop Driven Prion Protein mRNA Translation in H4 Neuroglioblastoma Cells. [Related pubchem assays: 1827 (Project Summary), 1813 (Primary HTS)]; format: functional
[19] = inhibitors of firefly luciferase expression or activity, dose response, H4 neuroglioma cells, luminescence (AID 1990); format: functional, cell-based
[20] = target: Cytochrome P450 2D6 (Homo sapiens, UniProt P10635);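 further: CYP2D6 member of a cytochrome P450 panel assay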
Chain of Cytochrome P450 2D6 (P10635 whole entry): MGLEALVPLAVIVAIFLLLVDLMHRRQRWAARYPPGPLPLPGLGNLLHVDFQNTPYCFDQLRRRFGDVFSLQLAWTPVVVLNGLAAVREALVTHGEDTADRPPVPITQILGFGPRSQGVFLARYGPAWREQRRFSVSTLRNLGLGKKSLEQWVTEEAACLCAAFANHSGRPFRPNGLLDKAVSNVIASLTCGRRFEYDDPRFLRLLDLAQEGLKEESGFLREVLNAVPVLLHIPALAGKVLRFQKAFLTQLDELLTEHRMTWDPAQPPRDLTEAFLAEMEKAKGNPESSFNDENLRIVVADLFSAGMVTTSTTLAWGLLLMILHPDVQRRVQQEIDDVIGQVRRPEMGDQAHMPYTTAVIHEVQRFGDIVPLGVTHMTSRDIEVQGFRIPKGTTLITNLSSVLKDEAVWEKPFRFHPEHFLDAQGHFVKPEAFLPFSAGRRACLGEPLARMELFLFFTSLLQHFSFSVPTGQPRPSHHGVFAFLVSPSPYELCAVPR

[21] = target: T5, Eukaryotic translation initiation factor 2-alpha kinase 3 (Homo sapiens, UniProt Q9NZJ5); assay: Dose response cell-based high-throughput screening assay to measure PERK inhibition. [Related pubchem assays: 1416 ]; format: functional
T5 sequence (Q9NZJ5 whole entry): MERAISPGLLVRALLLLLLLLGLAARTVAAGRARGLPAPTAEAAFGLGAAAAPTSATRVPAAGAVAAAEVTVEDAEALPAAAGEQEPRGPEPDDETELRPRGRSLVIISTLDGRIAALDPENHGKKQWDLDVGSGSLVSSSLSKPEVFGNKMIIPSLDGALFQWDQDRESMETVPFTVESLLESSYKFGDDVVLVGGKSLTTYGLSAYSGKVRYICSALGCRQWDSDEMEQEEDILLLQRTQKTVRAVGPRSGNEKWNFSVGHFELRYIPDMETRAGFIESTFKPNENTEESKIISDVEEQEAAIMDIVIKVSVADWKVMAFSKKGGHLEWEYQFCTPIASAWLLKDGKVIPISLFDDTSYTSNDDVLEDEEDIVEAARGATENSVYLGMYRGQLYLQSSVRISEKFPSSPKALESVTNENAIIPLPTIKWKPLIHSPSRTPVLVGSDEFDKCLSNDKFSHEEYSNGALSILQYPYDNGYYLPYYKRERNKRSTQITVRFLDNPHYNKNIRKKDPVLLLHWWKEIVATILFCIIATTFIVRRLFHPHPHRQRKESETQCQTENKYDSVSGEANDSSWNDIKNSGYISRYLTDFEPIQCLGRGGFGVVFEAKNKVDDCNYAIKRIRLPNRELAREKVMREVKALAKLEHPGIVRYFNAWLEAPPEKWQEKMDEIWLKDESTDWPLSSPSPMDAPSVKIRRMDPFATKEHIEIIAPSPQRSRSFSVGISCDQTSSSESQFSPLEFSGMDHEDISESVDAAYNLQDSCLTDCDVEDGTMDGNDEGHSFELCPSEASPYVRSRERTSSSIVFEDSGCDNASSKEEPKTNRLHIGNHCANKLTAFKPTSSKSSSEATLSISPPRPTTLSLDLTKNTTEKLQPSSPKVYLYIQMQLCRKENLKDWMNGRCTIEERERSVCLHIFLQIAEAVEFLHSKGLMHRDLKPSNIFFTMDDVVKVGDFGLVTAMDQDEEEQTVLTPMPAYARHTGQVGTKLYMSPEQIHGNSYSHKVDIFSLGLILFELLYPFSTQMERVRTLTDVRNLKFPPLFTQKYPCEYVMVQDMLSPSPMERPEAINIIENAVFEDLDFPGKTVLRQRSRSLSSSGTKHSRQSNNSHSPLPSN

[22] = target: T5, Eukaryotic translation initiation factor 2-alpha kinase 3; assay: Counterscreen assay for PERK inhibitors: Dose response cell-based high throughput screening assay to measure inhibition of PERK at 6 hours. [Related pubchem assays: 1522, 1416 ]; format: functional
[23] = inhibitors of SNCA 5'UTR-driven reporter translation, confirmation, H4 neuroglioma cells, luminescence (AID 1988); format: functional, cell-based

Chain of Lysine-specific demethylase 4A (O75164 whole entry): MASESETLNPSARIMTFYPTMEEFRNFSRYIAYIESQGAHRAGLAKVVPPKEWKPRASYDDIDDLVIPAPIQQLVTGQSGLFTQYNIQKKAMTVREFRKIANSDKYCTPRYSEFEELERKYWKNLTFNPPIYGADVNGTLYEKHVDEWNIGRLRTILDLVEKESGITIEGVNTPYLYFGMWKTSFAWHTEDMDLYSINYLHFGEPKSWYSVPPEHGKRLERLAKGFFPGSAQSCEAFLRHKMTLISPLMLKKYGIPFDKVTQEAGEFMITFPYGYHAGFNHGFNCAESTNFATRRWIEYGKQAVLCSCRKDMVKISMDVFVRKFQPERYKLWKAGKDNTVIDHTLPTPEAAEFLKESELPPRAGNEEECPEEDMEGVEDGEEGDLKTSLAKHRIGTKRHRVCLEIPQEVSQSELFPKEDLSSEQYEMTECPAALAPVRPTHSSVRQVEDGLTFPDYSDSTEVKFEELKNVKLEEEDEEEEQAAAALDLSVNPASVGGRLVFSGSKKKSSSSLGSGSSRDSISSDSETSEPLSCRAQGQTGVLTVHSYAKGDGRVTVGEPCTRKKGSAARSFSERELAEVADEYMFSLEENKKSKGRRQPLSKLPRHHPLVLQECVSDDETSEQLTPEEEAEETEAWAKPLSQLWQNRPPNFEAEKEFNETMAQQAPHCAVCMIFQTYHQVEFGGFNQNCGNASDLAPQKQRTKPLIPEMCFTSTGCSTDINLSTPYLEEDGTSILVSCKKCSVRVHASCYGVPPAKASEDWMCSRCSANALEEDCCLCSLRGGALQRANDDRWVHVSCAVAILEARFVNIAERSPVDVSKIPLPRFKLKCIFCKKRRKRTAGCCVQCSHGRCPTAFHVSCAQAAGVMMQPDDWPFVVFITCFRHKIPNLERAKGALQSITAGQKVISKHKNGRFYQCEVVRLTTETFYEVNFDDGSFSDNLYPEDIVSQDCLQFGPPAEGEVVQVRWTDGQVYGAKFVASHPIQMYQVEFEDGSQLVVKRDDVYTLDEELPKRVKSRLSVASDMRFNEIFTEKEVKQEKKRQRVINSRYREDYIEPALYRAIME

For `CC(=O)Nc1ccc2c(c1)C(C)(C)C(C)N2C` (stereo not drawn), the AC50 [1] was 17.9 µM (active) and the IC50 [2] was > 50 µM (not active).
In the case of `O=C1c2cc([N+](=O)[O-])cc3cc([N+](=O)[O-])cc(c23)C(=O)N1c1ccccn1`, the AC50 [3] is reported as 7.92 µM (active), the IC50 [4] is reported as 16.3 µM (active) and the EC50 [5] is reported as 9.92 µM (active). For the same molecule, the CC50 [6] was 17.5 µM (active), the EC50 [7] was > 150 µM (inconclusive) and the EC50 [8] was > 59.7 µM (inactive). The IC50 [9] was 3.43 µM (active), the EC50 [10] was 37.1 µM (active) and the EC50 [11] was 7.76 µM (active). For the same molecule, the EC50 [12] was 54.8 µM (active), the AC50 [13] was 15.3 µM (active) and the CC50 [14] was 15.2 µM (active). The EC50 [15] was > 59.7 µM (inactive), the EC50 [16] was 11.2 µM (active) and the EC50 [17] was 13.7 µM (active).
For `CC(C)n1nnnc1-c1cc(Cl)cc(Cl)c1`, the EC50 [18] was 10.2 µM (active), the EC50 [19] was > 120 µM (not active) and the AC50 [20] was “inconclusive”. The EC50 [21] was > 55.7 µM (not active), the EC50 [22] was > 55.7 µM (not active) and the EC50 [23] was > 120 µM (not active).
